Measured values as given in paper PMC4813465, “Selective Inhibition of the Mitochondrial Permeability Transition Pore Protects against Neurodegeneration in Experimental Multiple Sclerosis” (The Journal of Biological Chemistry, 2015).

Columns and labels:
[1] = tested on: mitochondria of rat cortical neurons and isolated liver mitochondria; assay: Mitochondrial functional parameters (membrane potential, oxygen consumption, ATP production) in cultured rat neurons and isolated mitochondria; assay type: cell-based
Experimental: Oxygen consumption was measured using Oroboros Oxygraph-2K as described previously ([62]). Prior to the assay, the Oxygraph chambers were calibrated with Miro5 buffer (0.5 mM EGTA, 3 mM MgCl2·6H2O, 60 mM potassium lactobionate, 20 mM taurine, 10 mM KH2PO4, 20 mM HEPES, 110 mM sucrose, 1 g/liter BSA (essentially fatty acid-free)). Isolated mitochondria were suspended in Miro5 (at 100–200 μg/ml) and loaded into the chamber together with substrates (malate, 2 mM; glutamate, 10 mM), and the O2 flow signal was allowed to stabilize to the basal respiration rate (∼10 min). […] Data were analyzed by subtracting the antimycin A respiration rate to give mitochondrial specific O2 flow and were then expressed as a percentage of the basal O2 flow.
Rat cortical neurons, cultured for 8–9 days, were incubated for 40 min at 37 °C with the cell-permeant cationic dye tetramethylrhodamine methyl ester (25 nM), and fluorescence was measured using the ImageXpress Micro XL system (Molecular Devices). […] The minimum value after the addition of compound (prior to the addition of FCCP) was taken, and this was expressed as a percentage (using the baseline as 100% and FCCP as 0%) and then normalized to DMSO (100%).
Freshly isolated mouse liver mitochondria were suspended in MSK buffer containing 10 μg/ml rhodamine 123 (dequench mode), at a concentration of 500 μg/ml, and plated in an opaque black 96-well plate. […]

rat cortical neurons = assay: Mitochondrial membrane potential (TMRM) in rat cortical neurons; assay type: cell-based
From the text: The minimum value after the addition of compound (prior to the addition of FCCP) was taken, and this was expressed as a percentage (using the baseline as 100% and FCCP as 0%) and then normalized to DMSO (100%).

TRIM-CypA = TRIM-CypA (Homo sapiens, UniProt P62937+Q6PIZ9)
Experimental: Viral supernatant was collected 48 h post-transfection and stored at −80 °C.
To generate CRFK cells stably expressing N-terminally HA-tagged TRIM-CypA from an EXN-based vector, murine leukemia virus (MLV) vector was prepared as above, using pMDG, CMVi MLV gag-pol expression vector, and γ-retroviral expression vector encoding a fusion protein comprising human CypA downstream of owl monkey TRIM5 RBCC (EXN-TRIM-CypA) ([67]). CRFK cells, which are null for TRIM5α activity ([68]), were then transduced with vector, followed by selection of cells in 1 mg/ml G418 (Invitrogen).
Infectivity was measured by flow cytometry 48 h postinfection.

[2] = tested on: splenocytes from MOG 35-55 immunized ABH mice; assay: Myelin antigen (MOG 35-55)-induced T cell proliferation; assay type: cell-based, mouse; conditions: MOG residues 35–55, 5 μg/ml
Experimental: ABH mice were injected subcutaneously in the flank with 100 μg of myelin oligodendrocyte glycoprotein (MOG) peptide residues 35–55 (Cambridge Research Biochemicals Ltd., Billingham, UK) emulsified in Freund's adjuvant containing 200 μg of Mycobacterium tuberculosis H37Ra (Difco, Becton Dickinson, Oxford, UK) on days 0 and 7 ([69]). Spleens were collected and prepared and analyzed as above except that mitogens were replaced with 5 μg/ml MOG 35–55 peptide, and cells were incubated for 72 h before the addition of tritiated thymidine.

[3] = tested on: T cell proliferative response in draining auricular lymph node; assay: In vivo T cell proliferation, oxazolone contact hypersensitivity; parameters: species or system mouse
Experimental: The contact sensitizer 4-ethoxymethylene-2-phenyl-2-oxazolin-5-one (oxazolone; Sigma) was dissolved (25 mg/ml) in 4:1 acetone/olive oil. Mice (n = 3/group) received epicutaneous application of either 25 μl of 2.5% oxazolone or acetone/olive oil on the dorsum of the ear on day 0 ([70]). The draining auricular lymph nodes were removed 3 days later, and the induced proliferative response was assessed as described previously. Briefly, 5 × 10^5 cells/well were cultured in RPMI 1640 medium with glutamate (Gibco®, Invitrogen Ltd., Paisley UK), supplemented with 0.5 mM sodium, in round-bottomed 96-well plates overnight at 37 °C in a humidified atmosphere of 5% CO2 in the presence of 1 μCi of [^3H]thymidine (PerkinElmer Life Sciences) per well. DNA synthesis was estimated using β-scintillation counting as above. […] Results are expressed as mean ± S.E. thymidine incorporation counts/min.

[4] = tested on: experimental autoimmune encephalomyelitis; assay: Relapsing-progressive EAE in ABH mice (neurological score, RotaRod, neurofilament ELISA); assay type: in vivo, mouse
Experimental: Mice were injected subcutaneously with 1 mg of freeze-dried mouse spinal cord homogenate (SCH) in Freund's adjuvant on days 0 and 7 as described previously ([71]). After the initial paralytic disease and subsequent remission, a relapse was induced by a further injection of SCH in Freund's incomplete adjuvant on day 28 to induce a relapse 7 days later ([71]). Studies were randomized, blinded, and powered as described previously ([71]). Neurological scores were graded as 0 = normal, 1 = limp tail, 2 = impaired righting reflex, 3 = hind limb paresis, 4 = complete hind limb paralysis, and 5 = moribund/death ([71]). Results are expressed as mean ± S.E. maximum or minimum neurological score and mean day of onset ± S.D. The clinical scores are presented as the mean daily neurological score ± S.E. Differences in clinical scores were assessed using non-parametric, Mann-Whitney U statistics ([71]). Motor control and coordination were assessed on an accelerating (4–40 rpm, accelerating at 6 rpm/25 s) RotaRod (ENV-575M, Med Associates Inc., St. Albans, VT) as described previously ([71]). This was performed 1 day before induction of relapse and at the termination of the experiment on day 45. RotaRod assessment was performed blinded to treatment. Animals were randomized to vehicle or treatment based on their RotaRod scores. Results are expressed as mean ± S.E. time that animals maintained rotarod activity. Differences in rota activity and quantitative neurofilament ELISA were assessed using Student's t test incorporating tests for equality of variance using Sigmaplot (Systat Software, Inc., San Jose, CA) ([71]).
At the end of the experiment, the spinal cord was removed, and an ELISA for heavy chain neurofilament on spinal cord was performed. Total nerve content of each spinal cord was estimated following calibration against neurofilament protein standards as described previously ([71], [72]).
Neurofilament level as a validated correlate of spinal cord axonal content as determined by histology was determined as follows. […] Tissues were snap-frozen and stored at −80 °C before homogenization. Tissues were homogenized in a glass homogenizer in 1 ml/100 mg of spinal cord tissue wet weight homogenization buffer (0.2 mM PMSF, 1 mM EDTA, 1 mM EGTA, 4 M urea, 10 mM Tris-HCl (Sigma), pH 7.2) plus 1:100 HALT protease inhibitor mixture (Thermo Fisher Scientific) and further homogenized by sonication twice for 10 s (Cole-Parmer Instruments, Vernon Hills, IL). Samples were spun down at 13,000 rpm in a bench top centrifuge (Eppendorf), and the supernatant was collected and stored at −80 °C before neurofilament determination. Samples were thawed on ice, and an ELISA for heavy chain neurofilament was performed. Briefly, a 96-well plate was coated overnight at 4 °C with capture antibody (1:5000; SMI35 anti-neurofilament H, Cambridge Bioscience, Cambridge, UK) in coating buffer (0.15 M Na2CO3, 0.35 M NaHCO3 (Sigma), pH 9.6). Following one wash in wash buffer (150 mM NaCl, 10 mM Tris-HCl, 0.1% Tween 20 (Sigma), pH 7.5), nonspecific binding was blocked by incubation with 5% bovine serum albumin (Sigma) in wash buffer for 1 h at room temperature. Following a wash step, samples and standards (porcine neurofilament heavy chain, Chemicon International) were diluted in wash buffer with 1% bovine serum albumin and incubated on the plate for 1 h at room temperature. Following five wash steps, the detector antibody was applied (1:1000 rabbit anti-NF200, Sigma) and incubated for a further 1 h at room temperature. The plate was washed five times, and the reporter antibody was applied (1:1000 swine anti-rabbit HRP conjugate, DAKO). Following a final five washes, tetramethylbenzidine substrate (Sigma) was applied, and color production was measured on a BioTek Synergy HT plate reader at 450 nm.

[5] = target: Ca2+-mediated PT pore formation (Mus musculus, UniProt Q99KR7); conditions: liver mitochondria
Experimental: Briefly, C57BL/6J WT or CypD^−/− ([63]) male mice of 3–6 months were sacrificed by cervical dislocation, and their liver was removed and placed immediately into ice-cold isolation buffer (250 mM mannitol, 5 mM HEPES, 0.5 mM EGTA, pH 7.4). At 4 °C, the liver was rinsed in PBS to remove excess blood, and any fat and connective tissue was eliminated. PBS was then replaced with isolation buffer containing 1 mM PMSF, and the liver was chopped into pieces (∼2 mm in length). Tissue was then homogenized in this solution until no solid matter remained and then centrifuged at 800 × g for 10 min at 4 °C. […] Protein levels were quantified using a Thermo Scientific BCA protein quantification assay, as per the manufacturer's instructions.
Isolated mitochondria were resuspended (500 μg of protein/ml) in MSK buffer (75 mM mannitol, 25 mM sucrose, 5 mM potassium phosphate monobasic, 20 mM Tris-HCl, 100 mM KCl, and 0.1% bovine serum albumin, pH 7.4) supplemented with 10 mM succinate, 1 μM rotenone, and 1 μM Fluo5N. […] Compounds were incubated for 10 min before the plate was assayed in a Fluostar Optima plate reader, using excitation/emission filters at 480/520 nm; CaCl2 was injected approximately every 6.5 min for 80 min (12 total injections, final concentration of 75 μM). […] Percentage inhibition for each [compound] was then calculated as the percentage of the corresponding value for the untreated condition. […]

CypA = CypA (Homo sapiens, UniProt P62937); assay: Fluorescence polarization cyclophilin binding assay, CypA; conditions: probe 45 nM, enzyme 40 nM
From the text: Fluorescence polarization (FP) is inversely related to the molecular rotation of the fluorophore. Fluorophores linked to small molecules tumble faster and emit less polarized fluorescence than fluorophore-small molecules bound to proteins. FP is a convenient technique to measure affinity of ligands to cyclophilins ([59], [60]).
(§1) Titration of a single probe concentration against different enzyme concentrations was used to determine the dissociation constant (Kd). From this we also determined the enzyme concentration that would give a high enough polarization signal to measure binding affinities.
(§2) At least three replicates were used for each experiment. The percentage of DMSO in the total solution should remain lower than 1%. […] Measurements were taken after gain adjustment of control sample and 30-min incubation with a xenon flash light with filter settings for 485-nm excitation and 520-nm emission.

K133I CypD = K133I CypD (Homo sapiens, UniProt P30405, K175I); assay: Fluorescence polarization cyclophilin binding assay, CypD; conditions: probe 45 nM, enzyme 40 nM
Experimental: as §1, §2

[6] = before treatment (baseline of the JW47 group)

Sequence of TRIM-CypA (P62937 2-165, one chain of several): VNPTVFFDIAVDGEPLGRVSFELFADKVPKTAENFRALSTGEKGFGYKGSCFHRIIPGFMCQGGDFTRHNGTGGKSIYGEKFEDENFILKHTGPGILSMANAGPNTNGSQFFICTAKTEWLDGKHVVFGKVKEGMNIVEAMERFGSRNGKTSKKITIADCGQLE
Sequence of K133I CypD (P30405 43-207 K175I): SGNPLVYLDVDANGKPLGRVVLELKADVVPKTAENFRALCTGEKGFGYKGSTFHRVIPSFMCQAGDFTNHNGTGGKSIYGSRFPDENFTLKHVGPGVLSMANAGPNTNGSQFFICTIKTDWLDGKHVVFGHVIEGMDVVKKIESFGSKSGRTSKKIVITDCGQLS
Sequence of Ca2+-mediated PT pore formation (Q99KR7 30-206): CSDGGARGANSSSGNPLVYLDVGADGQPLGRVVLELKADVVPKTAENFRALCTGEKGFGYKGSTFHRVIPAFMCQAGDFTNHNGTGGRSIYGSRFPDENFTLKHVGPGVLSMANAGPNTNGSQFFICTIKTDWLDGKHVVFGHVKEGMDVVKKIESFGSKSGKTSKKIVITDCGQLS
Sequence of CypA (P62937 whole entry, species assumed): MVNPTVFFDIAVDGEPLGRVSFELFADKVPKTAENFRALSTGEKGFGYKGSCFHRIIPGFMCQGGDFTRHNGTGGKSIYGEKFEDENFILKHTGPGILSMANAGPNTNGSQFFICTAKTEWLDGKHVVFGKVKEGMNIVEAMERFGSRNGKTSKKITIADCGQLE

Row | SMILES | concentration up to which mitochondrial membrane potential, oxygen consumption and ATP production were not affected [1] | effect on mitochondria in cortical neurons (rat cortical neurons; 40 nM) | effect on mitochondria in cortical neurons (rat cortical neurons; 1 μM) | concentration that inhibited neuronal mitochondrial membrane potential (rat cortical neurons; rat cortical neurons) [nM] | rescue of HIV-1 infectivity in TRIM-CypA cells (TRIM-CypA) | immunosuppressive activity in antigen-driven proliferation assay [2] | effect on T cell response, contact hypersensitivity model ([3]; 0.1 mg/kg intraperitoneally daily) | effect on T cell response, contact hypersensitivity model ([3]; 1 mg/kg intraperitoneally daily) | effect on T cell response, contact hypersensitivity model ([3]; 10 mg/kg intraperitoneally daily) | incidence of disease (relapse) ([4]; 1 mg/kg intraperitoneally daily from day 33) | onset of induced relapse ([4]; 1 mg/kg intraperitoneally daily, SCH injection day 28, mean ± S.D.) [days] | rotorod activity during the second remission after relapse ([4]; 1 mg/kg intraperitoneally daily, day 45) [s] | minimal neurological score during the second remission ([4]; 1 mg/kg intraperitoneally daily, p < 0.001 vs vehicle) | maximal severity disease score ([4]; 1 mg/kg intraperitoneally daily, score 0–5, mean ± S.E.) | loss of nerves and axons within the spinal cord, neurofilament ELISA ([4]; 1 mg/kg intraperitoneally daily, vs vehicle) | minimal clinical score during the first remission [4, 6] | rotorod activity on day 27 during the first remission [4, 6] [s] | effect on CRC, mitochondria from WT mice [5] | Ki (CypA) [nM] | Ki (K133I CypD) [nM]
1 | CC[C@@H]1NC(=O)[C@H]([C@H](O)[C@H](C)C/C=C/CCC[n+]2cccc3ccccc32)N(C)C(=O)[C@H](C(C)C)N(C)C(=O)[C@H](CC(C)C)N(C)C(=O)[C@H](CC(C)C)N(C)C(=O)[C@@H](C)NC(=O)[C@H](C)NC(=O)[C@H](CC(C)C)N(C)C(=O)[C@H](C(C)C)NC(=O)[C@H](CC(C)C)N(C)C(=O)CN(C)C1=O [JW47, [Gly-(1S,2R,E)-8-quinolinium-1-hydroxy-2-methyloct-4-ene]^1 CsA] | up to 200 nM | not affected | significantly depolarized | 1000 | no activity | markedly less immunosuppressive activity compared with CsA | no effect | no effect | inhibited the T cell response | 14 of 14 | 34.5 ± 0.7 | 135.0 ± 42.9 | 1.4 ± 0.3 | 3.9 ± 0.1 | lost significantly (p < 0.01) fewer nerves | 0.6 ± 0.1 | 168.8 ± 21.8 | significantly increased |  | 
2 | C/C=C/C[C@@H](C)[C@@H](O)[C@H]1C(=O)N[C@@H](CC)C(=O)N(C)[C@H](Cc2ccc(C(=O)O)cc2)C(=O)N(C)[C@@H](CC(C)C)C(=O)N[C@@H](C(C)C)C(=O)N(C)[C@@H](CC(C)C)C(=O)N[C@@H](C)C(=O)N[C@H](C)C(=O)N(C)[C@@H](CC(C)C)C(=O)N(C)[C@@H](CC(C)C)C(=O)N(C)[C@@H](C(C)C)C(=O)N1C [SmBzCsA] |  |  |  |  |  |  |  |  |  |  |  |  |  |  |  |  |  |  | 236 ± 8.4 | 202 ± 14.1
